Data set [1] is described as follows: Hygroscopic property evaluation of pemafibrate crystal (Karl Fischer moisture content). In kind it is physicochemical. As to the method:
A pemafibrate crystal was produced by recrystallizing pemafibrate from an ethyl acetate/heptane mixture in accordance with the method for producing a pemafibrate crystal as described in Non-Patent Document 1.
250 mg of the pemafibrate crystal was placed in a dish, and stored in an uncapped state (open state) in a dark place at 25° C. and 83% relative humidity (RH) for 3 months. The hygroscopic property was evaluated by measuring the moisture contents before and after the storage. The measurement of the moisture content was performed by a coulometric titration method in accordance with The Japanese Pharmacopoeia, 17th Edition, Moisture Content Measurement Method (Karl Fischer Method).

Data set [2] in a line: Examination of stability of pemafibrate, stored alone in open state in dish (HPLC related substances). In kind it is physicochemical. The procedure:
250 mg of pemafibrate was placed in a dish, and stored in an uncapped state (open state) in a dark place at 40° C. and 75% relative humidity (RH) for 3 months.
The amounts of pemafibrate-derived decomposition products (related substances) before the start of storage and after storage at 40° C. and 75% RH for 3 months were evaluated through the following method.
The sum of related substance-derived peak areas was evaluated in terms of a ratio (%) to the pemafibrate-derived peak area using an HPLC apparatus, and the ratio was defined as the “Total amount (%) of related substances”.

Bounds are passed on as bounds.

`CC[C@@H](Oc1cccc(CN(CCCOc2ccc(OC)cc2)c2nc3ccccc3o2)c1)C(=O)O` [Pemafibrate crystal, (2R)-2-[3-([1,3-Benzoxazol-2-yl[3-(4-methoxyphenoxy)propyl]amino]methyl)phenoxy]butanoic acid]: the “Moisture content (%), before storage” value in data set [1] (before storage, Karl Fischer coulometric titration) was <0.1%. Moreover, the “Moisture content (%), after storage at 25° C. and 83% RH for 3 months” value in data set [1] (open state in dish, dark place, 25° C., 83% RH, 3 months) is on record as <0.1%. The Hygroscopic property result in data set [1] (storage at 83% RH for 3 months, in words) was “not hygroscopic”.
As for `CC[C@@H](Oc1cccc(CN(CCCOc2ccc(OC)cc2)c2nc3ccccc3o2)c1)C(=O)O` [Pemafibrate, (2R)-2-[3-([1,3-Benzoxazol-2-yl[3-(4-methoxyphenoxy)propyl]amino]methyl)phenoxy]butanoic acid], the “Stability at high humidity” value in data set [2] (75% RH, storage for 3 months, in words) was “stable”. The “Total amount (%) of related substances, before storage” value in data set [2] (before storage, HPLC ratio of related substance peak areas to pemafibrate peak area) is <0.05%. The “Total amount (%) of related substances, after storage at 40° C. and 75% RH for 3 months” value in data set [2] (open state in dish, dark place, 40° C., 75% RH, 3 months) is <0.05%.

Values taken from US11419855B2, “Pharmaceutical preparation” (KOWA COMPANY, LTD., priority 2017, dated 2022).
